Assay results taken from ChEMBL document CHEMBL4706535, “The development of Coronavirus 3C-Like protease (3CL) inhibitors from 2010 to 2020” (Eur J Med Chem, 2020).

System: SARS-CoV-2
Assay: microbe, parasite or virus in culture
Conditions: Severe acute respiratory syndrome coronavirus 2, nCoV-2019 BetaCoV/Wuhan/WIV04/2019, Vero C1008

## O=C[C@H](C[C@@H]1CCNC1=O)NC(=O)[C@H](Cc1cccc(F)c1)NC(=O)c1cc2ccccc2[nH]1
  EC50: 0.72 µM
